# Assay results taken from PMC10518255, “A first-in-class pan-lysyl oxidase inhibitor impairs stromal remodeling and enhances gemcitabine response and survival in pancreatic cancer” (Nature Cancer, 2023).
# Values joined by “and” are separate entries in the source; they are usually repeats but may differ in a detail not shown here. Equal entries are not always repeated.
# Assays:
# LOXL2 = target: T1, LOXL2 (Homo sapiens, UniProt Q9Y4K0); experiment: Lysyl oxidase enzymatic activity, fluorescence-based assay, IC50; format: biochemical
# T1 sequence (Q9Y4K0 26-774): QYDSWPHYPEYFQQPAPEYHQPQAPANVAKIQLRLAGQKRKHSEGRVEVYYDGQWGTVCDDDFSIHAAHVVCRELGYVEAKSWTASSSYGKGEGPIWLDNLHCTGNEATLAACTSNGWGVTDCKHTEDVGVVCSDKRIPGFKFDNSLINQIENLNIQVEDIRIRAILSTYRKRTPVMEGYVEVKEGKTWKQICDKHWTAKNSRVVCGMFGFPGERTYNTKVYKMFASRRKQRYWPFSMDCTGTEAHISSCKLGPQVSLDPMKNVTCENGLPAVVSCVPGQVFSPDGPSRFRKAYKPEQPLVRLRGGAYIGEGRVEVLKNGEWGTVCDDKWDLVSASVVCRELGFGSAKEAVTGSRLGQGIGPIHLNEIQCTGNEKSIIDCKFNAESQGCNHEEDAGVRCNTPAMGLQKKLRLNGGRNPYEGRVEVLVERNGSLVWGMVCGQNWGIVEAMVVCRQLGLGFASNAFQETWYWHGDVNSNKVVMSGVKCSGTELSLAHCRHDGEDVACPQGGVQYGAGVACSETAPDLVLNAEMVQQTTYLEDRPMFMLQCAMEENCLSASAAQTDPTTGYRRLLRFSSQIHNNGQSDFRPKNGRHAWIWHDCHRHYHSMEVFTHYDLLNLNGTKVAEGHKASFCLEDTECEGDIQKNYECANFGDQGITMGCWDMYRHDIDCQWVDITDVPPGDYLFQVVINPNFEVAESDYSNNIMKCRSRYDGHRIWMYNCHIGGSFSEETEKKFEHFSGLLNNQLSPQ
# Text: (§1) Data are presented as mean ± s.d. […] Data presented as mean ± s.d. […] Source data TEXT PRINTED IN THE PICTURE: (b) PXS-5505: Recombinant DAO IC50 (nM): >30,000; Recombinant SSAO/VAP1 IC50 (nM): >30,000; Recombinant MAO-A IC50 (nM): >30,000; Recombinant MAO-B IC50 (nM): >30,000 | (f) PXS-5505: Fibroblast LOX IC50 (nM): 4,930; Recombinant LOXL-1 IC50 (nM): 1,590; Recombinant LOXL-2 IC50 (nM): 570; Recombinant LOXL-3 IC50 (nM): 1,800; Recombinant LOXL-4 IC50 (nM): 190
# In characterizing PXS-5505, the half-maximum inhibitory concentration (IC50) values for each of the lysyl oxidase family members were determined by measuring enzymatic activity using a fluorescence-based assay.
# Data presented as mean values +/− SD. f. […] Data presented as mean values +/− SD. […] Data presented as mean values +/− SD. […] Data presented as mean values +/− SD. Ordinary one-way ANOVA for multiple comparison test performed. Source data
# DAO = target: T2, DAO (Homo sapiens, UniProt P19801); experiment: IC50 determination against other human amine oxidases; format: biochemical
# T2 sequence (P19801 20-751): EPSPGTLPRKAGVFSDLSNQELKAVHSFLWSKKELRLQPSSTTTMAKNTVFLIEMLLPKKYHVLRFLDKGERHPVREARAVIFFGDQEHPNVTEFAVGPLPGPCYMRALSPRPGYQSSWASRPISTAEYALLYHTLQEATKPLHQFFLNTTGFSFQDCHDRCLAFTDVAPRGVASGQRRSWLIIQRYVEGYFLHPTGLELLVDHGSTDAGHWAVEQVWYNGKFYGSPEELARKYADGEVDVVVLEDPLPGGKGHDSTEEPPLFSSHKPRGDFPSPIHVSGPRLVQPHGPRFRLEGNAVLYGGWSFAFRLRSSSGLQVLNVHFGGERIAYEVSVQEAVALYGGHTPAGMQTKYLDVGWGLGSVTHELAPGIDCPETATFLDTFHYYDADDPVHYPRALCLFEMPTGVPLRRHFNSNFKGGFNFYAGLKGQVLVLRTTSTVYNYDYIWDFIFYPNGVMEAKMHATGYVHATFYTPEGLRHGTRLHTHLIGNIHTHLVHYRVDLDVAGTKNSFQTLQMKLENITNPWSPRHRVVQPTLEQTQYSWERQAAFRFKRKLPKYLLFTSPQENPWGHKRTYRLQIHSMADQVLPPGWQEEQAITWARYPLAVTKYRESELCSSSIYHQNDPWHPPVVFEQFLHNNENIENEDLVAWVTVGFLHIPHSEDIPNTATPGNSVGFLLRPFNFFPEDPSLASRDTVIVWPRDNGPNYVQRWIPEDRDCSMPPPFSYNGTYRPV
# Text: as §1
smiles,measurement,setting,value
"Cl.Cl.NC/C=C(\F)CS(=O)(=O)c1cccc2cccnc12.O [PXS-5505, (Z)-3-fluoro-4-(quinolin-8-ylsulfonyl)but-2-en-1-amine dihydrochloride monohydrate]",IC50,LOXL2,570 nM
same,"LOXL2 activity, IC50 determination curve","LOXL2; log(Concentration) -4.52288, replicates, 30 µM",0.9304 and 1.355 and 0.47 and 0.4711 and 0.6366 and 0.3339 and 2.414 and 1.859 and 1.553 and 2.478
same,"LOXL2 activity, IC50 determination curve","LOXL2; log(Concentration) -5, replicates, 10 µM",0.791 and 0.552 and 3.171 and 2.146 and 2.6 and 2.324 and 4.194 and 15.0185 and 14.1707 and 8.37
same,"LOXL2 activity, IC50 determination curve","LOXL2; log(Concentration) -5.47712, replicates, 3.333 µM",9.121 and 8.824 and 12.3933 and 6.2776 and 9.388 and 8.093 and 13.2114 and 39.9206 and 33.7785 and 20.6899
same,"LOXL2 activity, IC50 determination curve","LOXL2; log(Concentration) -5.95424, replicates, 1.111 µM",20.2389 and 25.6139 and 36.0073 and 28.0488 and 26.7357 and 24.6346 and 38.4827 and 46.4776 and 45.1428 and 35.5222
same,"LOXL2 activity, IC50 determination curve","LOXL2; log(Concentration) -6.43136, replicates, 0.3704 µM",49.7826 and 57.6495 and 70.9317 and 50.7979 and 55.1496 and 52.5589 and 67.2849 and 60.9084 and 60.7641 and 53.7886
same,"LOXL2 activity, IC50 determination curve","LOXL2; log(Concentration) -6.90849, replicates, 0.1235 µM",78.7223 and 82.1964 and 89.3928 and 77.9843 and 81.0351 and 77.3849 and 88.1863 and 70.6401 and 64.9941 and 65.916
same,"LOXL2 activity, IC50 determination curve","LOXL2; log(Concentration) -7.38561, replicates, 0.04115 µM",84.6124 and 93.105 and 97.9338
same,"LOXL2 activity, IC50 determination curve","LOXL2; log(Concentration) -7.86273, replicates, 0.01372 µM",94.5455 and 97.658 and 97.7862 and 96.4122 and 96.1969 and 92.4844 and 101.479 and 86.0269 and 80.2817 and 84.4595
same,"LOXL2 activity, IC50 determination curve","LOXL2; log(Concentration) -8.33985, replicates, 0.004572 µM",93.002 and 104.67 and 103.129 and 98.6809 and 97.1184 and 102.587 and 94.1262 and 87.5963 and 94.8578
same,"LOXL2 activity, IC50 determination curve","LOXL2; log(Concentration) -8.81697, replicates, 0.001524 µM",103.323 and 104.142 and 98.8815 and 101.169 and 98.4227 and 104.725 and 98.8974 and 89.6166 and 94.7795
same,"LOXL2 activity, IC50 determination curve","LOXL2; log(Concentration) -9.29409, replicates, 0.000508 µM",94.0836 and 101.708 and 97.4085 and 100.105 and 99.6157 and 105.819 and 98.717 and 92.3043 and 96.8459
same,activity at 0.004572 µM,"LOXL2; read-out: LOXL2 activity, IC50 determination curve, log(Concentration) -8.33985, replicates",91.8%
same,activity at 0.001524 µM,"LOXL2; read-out: LOXL2 activity, IC50 determination curve, log(Concentration) -8.81697, replicates",95.1%
same,activity at 0.000508 µM,"LOXL2; read-out: LOXL2 activity, IC50 determination curve, log(Concentration) -9.29409, replicates",92%
same,IC50,DAO,> 30 µM
